In PubChem BioAssay AID1963975 (Molecular Pharmacology Branch, DTP, NCI, 2024):

Test system: 624824-186-R-J2-PDC multicell spheroids, viability
Assay: Anticancer human tumor 624824-186-R-J2-PDC patient-derived colon adenocarcinoma cell line growth inhibition [PI3K]
Details: for IC50: curve of first compound; for viability, T/C: stronger effect = lower value
Summary of the method: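 Agents were dosed from a top concentration near clinical Cmax (otherwise 10 microM) in half-log decrements, alone or combined with PI3K inhibitors. The spheroids contain tumor cells plus endothelial (HUVEC) and MSC stroma; viability is measured.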

[1] = second compound 0.00316 µM, first compound 0.0316 µM
[2] = second compound 0.00316 µM, first compound 0.1 µM
[3] = second compound 0.01 µM, first compound 0.0316 µM
[4] = second compound 0.01 µM, first compound 0.1 µM
[5] = second compound 0.0316 µM, first compound 0.0316 µM
[6] = second compound 0.0316 µM, first compound 0.1 µM
[7] = second compound 0.1 µM, first compound 0.0316 µM
[8] = second compound 0.1 µM, first compound 0.1 µM
[9] = second compound 0.316 µM, first compound 0.0316 µM
[10] = second compound 0.316 µM, first compound 0.1 µM
[11] = second compound 1 µM, first compound 0.0316 µM
[12] = second compound 1 µM, first compound 0.1 µM
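Note: spheroids exposed to agents for 7 days before viability read.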
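Throughout, for viability, T/C: 100% = DMSO vehicle treated spheroids.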

Structure (SMILES): CC(C)n1nc(-c2ccc3oc(N)nc3c2)c2c(N)ncnc21 + COc1c(OCCCN2CCOCC2)ccc2c3n(c(=NC(=O)c4cnc(N)nc4)nc12)CCN3
- IC50 (second compound 0.00316 µM): > 0.1 µM
- IC50 (second compound 0.01 µM): > 0.1 µM
- IC50 (second compound 0.0316 µM): > 0.1 µM
- IC50 (second compound 0.1 µM): > 0.1 µM
- IC50 (second compound 0.316 µM): 0.0753 µM
- IC50 (second compound 1 µM): > 0.1 µM
- viability, T/C (second compound 0.00316 µM, first compound 0.000316 µM): 82.8%
- viability, T/C (second compound 0.00316 µM, first compound 0.001 µM): 95.9%
- viability, T/C (second compound 0.00316 µM, first compound 0.00316 µM): 82.4%
- viability, T/C (second compound 0.00316 µM, first compound 0.01 µM): 99.5%
- viability, T/C [1]: 84%
- viability, T/C [2]: 70.1%
- viability, T/C (second compound 0.01 µM, first compound 0.000316 µM): 104%
- viability, T/C (second compound 0.01 µM, first compound 0.001 µM): 83.2%
- viability, T/C (second compound 0.01 µM, first compound 0.00316 µM): 93.2%
- viability, T/C (second compound 0.01 µM, first compound 0.01 µM): 86.7%
- viability, T/C [3]: 80.7%
- viability, T/C [4]: 68.9%
- viability, T/C (second compound 0.0316 µM, first compound 0.000316 µM): 90.3%
- viability, T/C (second compound 0.0316 µM, first compound 0.001 µM): 78.8%
- viability, T/C (second compound 0.0316 µM, first compound 0.00316 µM): 81.4%
- viability, T/C (second compound 0.0316 µM, first compound 0.01 µM): 69.6%
- viability, T/C [5]: 69.9%
- viability, T/C [6]: 54.5%
- viability, T/C (second compound 0.1 µM, first compound 0.000316 µM): 70.1%
- viability, T/C (second compound 0.1 µM, first compound 0.001 µM): 77.3%
- viability, T/C (second compound 0.1 µM, first compound 0.00316 µM): 58.5%
- viability, T/C (second compound 0.1 µM, first compound 0.01 µM): 57.3%
- viability, T/C [7]: 58.3%
- viability, T/C [8]: 49.7%
- viability, T/C (second compound 0.316 µM, first compound 0.000316 µM): 70.6%
- viability, T/C (second compound 0.316 µM, first compound 0.001 µM): 60.7%
- viability, T/C (second compound 0.316 µM, first compound 0.00316 µM): 60.7%
- viability, T/C (second compound 0.316 µM, first compound 0.01 µM): 59.1%
- viability, T/C [9]: 53.7%
- viability, T/C [10]: 47.8%
- viability, T/C (second compound 1 µM, first compound 0.000316 µM): 64.6%
- viability, T/C (second compound 1 µM, first compound 0.001 µM): 52.7%
- viability, T/C (second compound 1 µM, first compound 0.00316 µM): 55%
- viability, T/C (second compound 1 µM, first compound 0.01 µM): 61.2%
- viability, T/C [11]: 56.1%
- viability, T/C [12]: 52%

Structure (SMILES): CC1(C)CCC(CN2CCN(c3ccc(C(=O)NS(=O)(=O)c4ccc(NCC5CCOCC5)c([N+](=O)[O-])c4)c(Oc4cnc5[nH]ccc5c4)c3)CC2)=C(c2ccc(Cl)cc2)C1 + COc1c(OCCCN2CCOCC2)ccc2c3n(c(=NC(=O)c4cnc(N)nc4)nc12)CCN3
- IC50 (second compound 0.00316 µM): > 10 µM
- IC50 (second compound 0.01 µM): > 10 µM
- IC50 (second compound 0.0316 µM): > 10 µM
- IC50 (second compound 0.1 µM): 6.81 µM
- IC50 (second compound 0.316 µM): 4.68 µM
- IC50 (second compound 1 µM): 4.7 µM
- viability, T/C [1]: 78.7%
- viability, T/C [2]: 82.4%
- viability, T/C (second compound 0.00316 µM, first compound 0.316 µM): 81.6%
- viability, T/C (second compound 0.00316 µM, first compound 1 µM): 98%
- viability, T/C (second compound 0.00316 µM, first compound 3.16 µM): 70.5%
- viability, T/C (second compound 0.00316 µM, first compound 10 µM): 61%
- viability, T/C [3]: 99%
- viability, T/C [4]: 83.5%
- viability, T/C (second compound 0.01 µM, first compound 0.316 µM): 83.1%
- viability, T/C (second compound 0.01 µM, first compound 1 µM): 94.9%
- viability, T/C (second compound 0.01 µM, first compound 3.16 µM): 78.2%
- viability, T/C (second compound 0.01 µM, first compound 10 µM): 57.5%
- viability, T/C [5]: 84.3%
- viability, T/C [6]: 90.5%
- viability, T/C (second compound 0.0316 µM, first compound 0.316 µM): 82.6%
- viability, T/C (second compound 0.0316 µM, first compound 1 µM): 90.7%
- viability, T/C (second compound 0.0316 µM, first compound 3.16 µM): 78.7%
- viability, T/C (second compound 0.0316 µM, first compound 10 µM): 50.2%
- viability, T/C [7]: 69%
- viability, T/C [8]: 76.8%
- viability, T/C (second compound 0.1 µM, first compound 0.316 µM): 84.8%
- viability, T/C (second compound 0.1 µM, first compound 1 µM): 78.4%
- viability, T/C (second compound 0.1 µM, first compound 3.16 µM): 73.1%
- viability, T/C (second compound 0.1 µM, first compound 10 µM): 38.2%
- viability, T/C [9]: 60%
- viability, T/C [10]: 65.7%
- viability, T/C (second compound 0.316 µM, first compound 0.316 µM): 72.1%
- viability, T/C (second compound 0.316 µM, first compound 1 µM): 67.9%
- viability, T/C (second compound 0.316 µM, first compound 3.16 µM): 60.5%
- viability, T/C (second compound 0.316 µM, first compound 10 µM): 28.2%
- viability, T/C [11]: 64.7%
- viability, T/C [12]: 62.3%
- viability, T/C (second compound 1 µM, first compound 0.316 µM): 63.2%
- viability, T/C (second compound 1 µM, first compound 1 µM): 61.4%
- viability, T/C (second compound 1 µM, first compound 3.16 µM): 64.7%
- viability, T/C (second compound 1 µM, first compound 10 µM): 24.8%
